pEC50: −log10 of the molar value.

One assay has as its target T1, human ALX receptor (Homo sapiens, UniProt P25090).
T1 construct: expressed in transfected cells; host or cells: HEK293 (HEK293-hALXR-Gα16)
T1 sequence (P25090 1-351): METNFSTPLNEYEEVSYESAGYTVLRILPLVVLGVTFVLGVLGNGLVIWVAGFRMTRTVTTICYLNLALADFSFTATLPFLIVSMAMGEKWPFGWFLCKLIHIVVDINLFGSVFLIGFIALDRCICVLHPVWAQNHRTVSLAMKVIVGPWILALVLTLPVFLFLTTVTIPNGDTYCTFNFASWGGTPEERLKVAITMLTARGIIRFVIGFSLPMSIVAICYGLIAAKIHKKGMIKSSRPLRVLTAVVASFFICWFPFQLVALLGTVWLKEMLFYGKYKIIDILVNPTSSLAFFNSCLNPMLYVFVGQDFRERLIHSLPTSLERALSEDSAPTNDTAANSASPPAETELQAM
Briefly: Intracellular calcium measurements (FLIPR), agonistic activity in HEK293-hALXR-Gα16 cells. The class given is cell-based. Particulars: Fluo-4 calcium FLIPR, normalized to WKYMVm 10 nM. Summed up:
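HEK293 cells expressing hALXR and Gα16 were loaded with 1 μM Fluo-4 AM and 20 mM HEPES for 60 min at 37°C, then exposed to serially diluted compound. FLIPR fluorescence was read at ex 488/em 540 nm. Baseline-subtracted peak responses were normalized to 10 nM WKYMVm.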

For a further assay, the target named is T2, human FPRL2 (Homo sapiens, UniProt P25089).
T2 construct: expressed in transfected cells; host or cells: HEK293 (HEK293-hFPRL2-Gα16)
T2 sequence (P25089 1-353): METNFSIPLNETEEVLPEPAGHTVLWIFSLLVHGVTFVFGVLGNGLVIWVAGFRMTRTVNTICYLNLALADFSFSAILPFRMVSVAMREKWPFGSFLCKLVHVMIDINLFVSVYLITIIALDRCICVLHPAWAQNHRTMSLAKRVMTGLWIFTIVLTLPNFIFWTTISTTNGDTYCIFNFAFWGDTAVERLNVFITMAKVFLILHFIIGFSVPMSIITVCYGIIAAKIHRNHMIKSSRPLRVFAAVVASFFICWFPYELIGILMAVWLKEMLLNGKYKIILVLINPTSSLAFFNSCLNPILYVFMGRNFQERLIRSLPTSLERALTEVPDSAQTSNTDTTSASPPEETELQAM
Briefly: Intracellular calcium measurements (FLIPR), agonistic activity in HEK293-hFPRL2-Gα16 cells. The class given is cell-based. To be noted: Fluo-4 calcium FLIPR, normalized to GLY14-Humanin 100 nM. Summed up:
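Peak values after baseline subtraction are expressed relative to 100 nM Gly14-Humanin; compounds diluted in assay buffer from 10 mM DMSO stocks.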
(In general: Calcium assays in cells follow changes in intracellular calcium, usually with a dye or a luminescent sensor.)

As usually defined, the pEC50 is the EC50 on a negative log10 scale, so that one unit is a factor of ten. Take `CN1CCCN(CCCCNC(=O)[C@H]2[C@H](C(=O)Nc3ccc(Br)cc3)[C@@H]3C=C[C@H]2C32CC2)CC1` [Example 212, (5R)—N^5-(4-Bromophenyl)-(6R)—N^6-(4-(4-methyl-1,4-diazepan-1-yl)butyl)-(4S,7R)-[4,7-ethenylene-spiro[2.4]heptane]-5,6-dicarboxamide]: the pEC50 at human ALX receptor was 9.05; at human FPRL2, 7.92.
Taken in the same sequence, the figures for `O=C(Nc1ccc(Br)cc1)C1C(C(=O)NC2CCC(CN3CCCC3)CC2)C2C=CC1C21CC1` (single isomer, unassigned) [Example 222] were 6.68 and 6.40.
For `CC(C)Oc1ccccc1CNC(=O)[C@H]1[C@H](C(=O)NCCCCN2CCCC2)[C@H]2C=C[C@@H]1C21CC1` (racemic) [Example 372, (5R*)—N^5-(2-Isopropoxyphenyl-methyl)-(6R*)—N^6-(4-pyrrolidino-butyl)-(4S*,7R*)-[4,7-ethenylene-spiro[2.4]heptane]-5,6-dicarboxamide], the pEC50 was under 4.60 on human ALX receptor and 6.41 on human FPRL2.
Taken in the same sequence, the figures for `O=C(NCCCCN1CCCC1)[C@H]1[C@H](C(=O)Nc2ccc(Br)cn2)[C@@H]2C=C[C@H]1C21CC1` [Example 294, (5R)—N^5-(5-Bromo-pyridin-2-yl)-(6R)—N^6-(4-pyrrolidino-butyl)-(4S,7R)-[4,7-ethenylene-spiro[2.4]heptane]-5,6-dicarboxamide] were 8.54 and 6.73.
Taken in the same sequence, the figures for `CC(=O)c1ccc(CNC(=O)[C@H]2[C@H](C(=O)NCCCCN3CCCC3)[C@H]3C=C[C@@H]2C32CC2)o1` [Example 195, (5R)—N^5-(5-Acetyl-furan-2-yl-methyl)-(6R)—N^6-(4-pyrrolidin-1-yl-butyl)-(4S,7R)-[4,7-ethenylene-spiro[2.4]heptane]-5,6-dicarboxamide] were 7.55 and 6.19.
With `CC(CCCNC(=O)[C@H]1[C@H](C(=O)Nc2ccc(Br)cc2)[C@@H]2C=C[C@H]1C21CC1)N1CCCC1` (stereo partly drawn) [Example 398, (5R)—N^5-(4-Bromophenyl)-(6R)—N^6-(4-(pyrrolidin-1-yl)pentyl)-(4S,7R)-[4,7-ethenylene-spiro[2.4]heptane]-5,6-dicarboxamide], the pEC50 is 8.74 at human ALX receptor and 5.12 on human FPRL2.
For `NCCCCCNC(=O)[C@H]1[C@H](C(=O)NCc2ccc(Br)cc2F)[C@@H]2CC[C@H]1C21CC1` [Example 326, (5R)—N^5-(4-Bromo-2-fluorophenyl-methyl)-(6R)—N^6-(5-amino-pentyl)-(4S,7R)-[4,7-ethylene-spiro[2.4]heptane]-5,6-dicarboxamide], the pEC50 on human ALX receptor is 7.66; at human FPRL2, 6.03.
Taken in the same sequence, the figures for `O=C(NCCCCN1CCCC1)C1C(C(=O)NCCc2ccc(F)cc2)C2C=CC1C21CC1` (stereo not drawn) [Example 382, (5R*)—N^5-(2-(4-Fluorophenyl)ethyl)-(6R*)—N^6-(4-pyrrolidino-butyl)-(4S*,7R*)-[4,7-ethenylene-spiro[2.4]heptane]-5,6-dicarboxamide] were 5.20 and 7.28.
Taken in the same sequence, the figures for `O=C(Nc1ccc(Br)cc1)C1C(C(=O)NC2CCCNC2)C2C=CC1C21CC1` (mixture of isomers) [Example 26, (5R*)—N^5-(4-Bromophenyl)-(6R*)—N^6-(piperidin-3-yl)-(4S*,7R*)-[4,7-ethenylene-spiro[2.4]heptane]-5,6-dicarboxamide] were 8.38 and 6.13.
The like results for `NC(=O)CCNC(=O)[C@H]1[C@H](C(=O)Nc2ccc(Br)cc2)[C@@H]2C=C[C@H]1C21CC1` [Example 13, (5R)—N^5-(4-Bromophenyl)-(6R)—N^6-(2-carbamoyl-ethyl)-(4S,7R)-[4,7-ethenylene-spiro[2.4]heptane]-5,6-dicarboxamide] were, in that order, 8.96 and 5.34.

Values taken from patent publication US8563714B2, “Bridged spiro [2.4] heptane derivatives as ALX receptor and/or FPRL2 agonists” (Actelion Pharmaceuticals Ltd., priority 2009, dated 2013).
